Data as given in ChEMBL document CHEMBL5233223, “Dammarane-type leads panaxadiol and protopanaxadiol for drug discovery: Biological activity and structural modification” (Eur J Med Chem, 2020).
Blank lines part the entries; values can stand above or below the compound they belong to.

Assays:
[1] = test system: HepG2 2.2.15; assay: Antiproliferative activity against human HepG2.2.15 cells assessed as cell growth inhibition; format: functional, cell-based
[2] = test system: LNCaP; assay: Antiproliferative activity against human LNCAP cells assessed as cell growth inhibition in presence of calcitriol; format: functional, cell-based
[3] = test system: HCT-116; assay: Antiproliferative activity against human HCT-116 cells assessed as cell growth inhibition by crystal violet staining based assay; format: functional
[4] = test system: RL95-2; assay: Induction of autophagy in human RL95-2 cells assessed as ratio of LC3bII/LC3bI levels; format: functional
[5] = test system: HT-1080; assay: Antiproliferative activity against human HT-1080 cells assessed as inhibition of cell proliferation; format: functional, cell-based
[6] = test system: Ishikawa; assay: Induction of autophagy in human Ishikawa cells assessed as ratio of LC3bII/LC3bI levels; format: functional
[7] = test system: SF-188; assay: Antiproliferative activity against human SF-188 cells assessed as inhibition of cell proliferation; format: functional, cell-based
[8] = target: Stromelysin-1 (Homo sapiens) (UniProt P08254); assay: Inhibition of MMP-3 (unknown origin) at 5 uM
[9] = test system: HCT-116; assay: Antiproliferative activity against human HCT-116 cells assessed as cell growth inhibition by crystal violet staining based assay relative to control; format: functional; set-up: scale not given: the % may be the effect or the level left
[10] = target: Stromelysin-1 (Homo sapiens) (UniProt P08254); assay: Inhibition of MMP-3 (unknown origin) at 10 uM
[11] = test system: LNCaP; assay: Antiproliferative activity against human LNCAP cells assessed as cell growth inhibition; format: functional, cell-based
[12] = test system: LNCaP C4-2; assay: Antiproliferative activity against human LNCaP C4-2 cells assessed as cell growth inhibition; format: functional, cell-based
[13] = Antiproliferative activity against human Ectopic endometrial stromal cell assessed as cell growth inhibition; format: functional, cell-based
[14] = target: Estrogen receptor (Homo sapiens, UniProt P03372); assay: Displacement of [3H]-17beta-estradiol to estrogen receptor (unknown origin)
[15] = test system: RS4-11; assay: Antiproliferative activity against human RS4-11 cells assessed as cell growth inhibition; format: functional, cell-based
[16] = Antiproliferative activity against human U-87 MG cells assessed as inhibition of cell proliferation; format: functional, cell-based, U-87MG ATCC
[17] = test system: REH; assay: Antiproliferative activity against human REH cells assessed as cell growth inhibition; format: functional, cell-based
[18] = Cytotoxicity against human PBMC assessed as cell growth inhibition; format: toxicity, cell-based; conditions: PBMC (peripheral blood mononuclear cells)
[19] = test system: SW480; assay: Antiproliferative activity against human SW480 cells assessed as cell growth inhibition by crystal violet staining based assay; format: functional
[20] = test system: LNCaP C4-2; assay: Antiproliferative activity against human LNCaP C4-2 cells assessed as cell growth inhibition in presence of calcitriol; format: functional, cell-based
[21] = test system: MCF7; assay: Antiproliferative activity against human MCF7 cells assessed as cell growth inhibition; format: functional, cell-based
[22] = target: 11-beta-hydroxysteroid dehydrogenase 1 (Homo sapiens, UniProt P28845); assay: Inhibition of human 11beta-HSD1
[23] = target: 11-beta-hydroxysteroid dehydrogenase 1 (Mus musculus, UniProt P50172); assay: Inhibition of mouse 11beta-HSD1
[24] = test system: SW480; assay: Antiproliferative activity against human SW480 cells assessed as cell growth inhibition; format: functional, cell-based
[25] = test system: HCT-116; assay: Induction of apoptosis in human HCT-116 cells at 20 uM in presence of EGCG at 10 uM relative to control; format: functional
[26] = test system: HCT-116; assay: Induction of apoptosis in human HCT-116 cells at 10 uM in presence of EGCG at 30 uM relative to control; format: functional
[27] = test system: HCT-116; assay: Induction of apoptosis in human HCT-116 cells at 20 uM in presence of EGCG at 20 uM relative to control; format: functional
[28] = test system: HCT-116; assay: Induction of apoptosis in human HCT-116 cells at 10 uM in presence of EGCG at 20 uM relative to control; format: functional
[29] = test system: SW480; assay: Antiproliferative activity against human SW480 cells assessed as cell growth inhibition in presence of irinotecan; format: functional, cell-based
[30] = test system: HCT-116; assay: Antiproliferative activity against human HCT-116 cells assessed as cell growth inhibition; format: functional, cell-based
[31] = test system: HCT-116; assay: Antiproliferative activity against human HCT-116 cells assessed as cell growth inhibition in presence of irinotecan; format: functional, cell-based
[32] = test system: HCT-116; assay: Induction of apoptosis in human HCT-116 cells at 10 uM in presence of EGCG at 10 uM relative to control; format: functional
[33] = test system: HCT-116; assay: Induction of apoptosis in human HCT-116 cells at 10 uM relative to control; format: functional
[34] = test system: HCT-116; assay: Induction of apoptosis in human HCT-116 cells at 20 uM in presence of EGCG at 30 uM relative to control; format: functional
[35] = test system: HCT-116; assay: Induction of apoptosis in human HCT-116 cells at 20 uM relative to control; format: functional

Stromelysin-1 (Homo sapiens), sequence (P08254 100-477 limits assumed): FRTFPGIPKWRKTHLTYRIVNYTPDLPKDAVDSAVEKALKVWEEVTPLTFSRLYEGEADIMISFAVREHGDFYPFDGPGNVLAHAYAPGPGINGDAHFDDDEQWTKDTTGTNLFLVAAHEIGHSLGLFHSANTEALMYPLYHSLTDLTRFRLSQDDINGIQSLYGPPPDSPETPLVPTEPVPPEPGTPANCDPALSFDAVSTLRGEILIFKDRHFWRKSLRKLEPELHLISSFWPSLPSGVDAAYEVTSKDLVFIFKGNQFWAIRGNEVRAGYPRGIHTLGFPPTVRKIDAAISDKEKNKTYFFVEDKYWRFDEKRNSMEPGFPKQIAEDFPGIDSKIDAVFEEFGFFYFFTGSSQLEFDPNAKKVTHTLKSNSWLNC
11-beta-hydroxysteroid dehydrogenase 1 (Mus musculus, UniProt P50172), sequence (P50172 whole entry): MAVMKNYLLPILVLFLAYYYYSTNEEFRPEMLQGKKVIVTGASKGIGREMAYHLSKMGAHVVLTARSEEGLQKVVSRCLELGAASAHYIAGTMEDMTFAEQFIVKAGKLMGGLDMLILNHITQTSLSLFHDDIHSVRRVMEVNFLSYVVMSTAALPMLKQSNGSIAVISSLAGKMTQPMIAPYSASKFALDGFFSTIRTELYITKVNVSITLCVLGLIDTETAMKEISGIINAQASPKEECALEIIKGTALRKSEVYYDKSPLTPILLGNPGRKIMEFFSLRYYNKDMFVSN
11-beta-hydroxysteroid dehydrogenase 1 (Homo sapiens, UniProt P28845), sequence (P28845 whole entry): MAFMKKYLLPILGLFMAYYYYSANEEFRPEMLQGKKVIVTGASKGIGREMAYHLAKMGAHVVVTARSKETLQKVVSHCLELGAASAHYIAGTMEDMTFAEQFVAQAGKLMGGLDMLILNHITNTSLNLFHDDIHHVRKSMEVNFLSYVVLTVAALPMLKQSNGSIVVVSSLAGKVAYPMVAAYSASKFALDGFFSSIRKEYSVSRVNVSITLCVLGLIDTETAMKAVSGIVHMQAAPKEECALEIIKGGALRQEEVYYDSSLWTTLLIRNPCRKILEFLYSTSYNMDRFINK
Estrogen receptor, sequence (P03372 whole entry): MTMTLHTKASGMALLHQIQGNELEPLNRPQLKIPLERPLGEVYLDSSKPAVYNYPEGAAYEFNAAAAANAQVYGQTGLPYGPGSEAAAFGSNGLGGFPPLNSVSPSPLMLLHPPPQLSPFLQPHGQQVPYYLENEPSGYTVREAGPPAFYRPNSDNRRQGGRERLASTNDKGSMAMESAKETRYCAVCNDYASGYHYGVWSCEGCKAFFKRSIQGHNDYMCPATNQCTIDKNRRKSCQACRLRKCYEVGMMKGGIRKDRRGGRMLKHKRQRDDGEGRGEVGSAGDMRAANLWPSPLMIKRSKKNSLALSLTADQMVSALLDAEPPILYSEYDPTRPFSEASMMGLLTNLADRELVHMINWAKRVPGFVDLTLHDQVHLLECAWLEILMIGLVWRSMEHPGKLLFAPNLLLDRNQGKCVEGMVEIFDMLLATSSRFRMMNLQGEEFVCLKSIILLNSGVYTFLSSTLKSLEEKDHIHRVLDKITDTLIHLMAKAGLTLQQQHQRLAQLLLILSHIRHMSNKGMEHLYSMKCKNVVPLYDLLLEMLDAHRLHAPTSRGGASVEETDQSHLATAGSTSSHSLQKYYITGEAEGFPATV

SMILES: CC1(C)CCC[C@](C)(C2CC[C@]3(C)C2[C@H](O)CC2[C@@]4(C)CC[C@H](OC(=O)c5ccccc5O)C(C)(C)C4CC[C@]23C)O1 (stereo partly specified)
IC50 [1]: 7.27 µM

SMILES: CC(C)=CCC[C@](C)(O)C1CC[C@]2(C)C1[C@H](O)CC1[C@@]3(C)CC[C@H](O)C(C)(C)C3CC[C@]12C (stereo partly specified)
IC50 [2]: 53 µM
IC50 [3]: 4.69 µM
Ratio [4]: 1.93
IC50 [5]: 76.8 µM
Ratio [6]: 0.91
IC50 [7]: 24 µM
inhibition [8]: 40.3%
Activity [9]: <30%
inhibition [10]: 68.6%
IC50 [11]: 41 µM
IC50 [12]: 13 µM
IC50 [13]: 30.6 µM
IC50 [14]: 26.3 µM
IC50 [15]: 27.2 µM
IC50 [16]: 38 µM
IC50 [17]: 24.4 µM
IC50 [18]: 116 µM
IC50 [19]: 8.99 µM
IC50 [20]: 23 µM

SMILES: CC1(C)CCC[C@@](C)(C2CC[C@]3(C)C2[C@H](O)CC2[C@@]4(C)CC[C@H](O)C(C)(C)C4CC[C@]23C)O1 (stereo partly specified)
IC50 [24]: 5 µM
Activity [25]: 27.8%
Activity [26]: 35.2%
Activity [27]: 40.7%
Activity [28]: 30.2%
IC50 [29]: 4.4 µM
IC50 [30]: 12.1 µM
IC50 [31]: 11.8 µM
Activity [32]: 14.1%
Activity [33]: 5.7%
Activity [34]: 48%
Activity [35]: 19%

Other lines, results leading:

IC50 [21]: 8.62 µM
SMILES: CC1(C)CCC[C@](C)(C2CC[C@]3(C)C2[C@H](O)CC2[C@@]4(C)CC[C@H](OC(=O)c5c(Cl)c(Cl)c(Cl)c(Cl)c5C(=O)O)C(C)(C)C4CC[C@]23C)O1 (stereo partly specified)

IC50 [22]: 0.044 µM
IC50 [23]: 0.41 µM
SMILES: CO[C@H]1CC(=O)[C@]2(C)C1[C@H](OC(C)=O)CC1[C@@]3(C)CC[C@H](O)C(C)(C)C3CC[C@]12C (stereo partly specified)

IC50 [1]: 7.27 µM
SMILES: CC1(C)CCC[C@](C)(C2CC[C@]3(C)C2[C@H](O)CC2[C@@]4(C)CC[C@H](OC(=O)CCC(=O)O)C(C)(C)C4CC[C@]23C)O1 (stereo partly specified)
